Assay results published in ChEMBL document CHEMBL4385620, “Inhibition of polypeptide N-acetyl-α-galactosaminyltransferases is an underlying mechanism of dietary polyphenols preventing colorectal tumorigenesis” (Bioorg Med Chem, 2019).
Calls of active or inactive are those of the source. No cut-off for these calls is given here.

What was measured:
[1] = biological target: T1, Polypeptide N-acetylgalactosaminyltransferase 2 (Homo sapiens, UniProt Q10471); test: Non-competitive inhibition of human recombinant FLAG-tagged ppGalNAcT2 expressed in HEK293 cells using UDP-GalNAc as substrate by HPLC-based enzyme assay
T1 sequence (Q10471 whole entry): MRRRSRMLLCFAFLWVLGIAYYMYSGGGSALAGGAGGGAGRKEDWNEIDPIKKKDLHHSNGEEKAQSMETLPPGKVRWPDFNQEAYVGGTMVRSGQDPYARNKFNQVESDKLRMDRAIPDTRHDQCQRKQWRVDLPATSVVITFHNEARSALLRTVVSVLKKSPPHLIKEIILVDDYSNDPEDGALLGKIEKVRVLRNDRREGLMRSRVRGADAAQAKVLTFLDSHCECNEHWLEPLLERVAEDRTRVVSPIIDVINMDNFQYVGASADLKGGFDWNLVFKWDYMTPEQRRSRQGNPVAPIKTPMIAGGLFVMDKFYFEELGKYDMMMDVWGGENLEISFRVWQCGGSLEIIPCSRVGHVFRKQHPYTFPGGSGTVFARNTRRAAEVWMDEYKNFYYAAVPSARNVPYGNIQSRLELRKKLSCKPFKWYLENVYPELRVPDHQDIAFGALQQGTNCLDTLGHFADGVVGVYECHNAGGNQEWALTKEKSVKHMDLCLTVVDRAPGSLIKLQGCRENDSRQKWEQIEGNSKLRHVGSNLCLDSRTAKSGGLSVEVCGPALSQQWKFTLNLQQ

[2] = biological target: T2, Polypeptide N-acetylgalactosaminyltransferase 10 (Homo sapiens, UniProt Q86SR1); test: Inhibition of catalytic activity of ppGalNAcT10 (unknown origin) using EA2 peptide as substrate incubated for 30 mins by HPLC-based enzyme assay
T2 sequence (Q86SR1 whole entry): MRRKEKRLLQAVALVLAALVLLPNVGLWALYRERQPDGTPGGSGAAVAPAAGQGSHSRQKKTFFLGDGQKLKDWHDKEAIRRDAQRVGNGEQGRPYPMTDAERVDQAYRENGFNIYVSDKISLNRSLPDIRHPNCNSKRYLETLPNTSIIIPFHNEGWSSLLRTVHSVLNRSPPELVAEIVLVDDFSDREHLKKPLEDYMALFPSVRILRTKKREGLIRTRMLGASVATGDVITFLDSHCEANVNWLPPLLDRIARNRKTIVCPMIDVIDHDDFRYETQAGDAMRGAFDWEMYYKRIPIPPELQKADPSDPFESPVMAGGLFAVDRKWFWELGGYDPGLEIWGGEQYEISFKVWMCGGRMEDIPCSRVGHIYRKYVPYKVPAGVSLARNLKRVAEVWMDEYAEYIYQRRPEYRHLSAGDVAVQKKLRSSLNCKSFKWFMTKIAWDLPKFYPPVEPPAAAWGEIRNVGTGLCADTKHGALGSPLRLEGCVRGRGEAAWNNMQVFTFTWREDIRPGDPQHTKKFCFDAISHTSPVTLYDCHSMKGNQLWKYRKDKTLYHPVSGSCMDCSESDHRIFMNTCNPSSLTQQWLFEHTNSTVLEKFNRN

[3] = biological target: T1, Polypeptide N-acetylgalactosaminyltransferase 2; test: Inhibition of catalytic activity of human recombinant FLAG-tagged ppGalNAcT2 using Muc5AC peptide as substrate incubated for 30 mins by HPLC-based enzyme assay
[4] = biological target: T1, Polypeptide N-acetylgalactosaminyltransferase 2; test: Inhibition of catalytic activity of human recombinant FLAG-tagged ppGalNAcT2 using Muc7 peptide as substrate incubated for 30 mins by HPLC-based enzyme assay
[5] = biological target: T1, Polypeptide N-acetylgalactosaminyltransferase 2; test: Inhibition of ppGalNAcT2 in human HT-29 cells assessed as reduction in O-GalNAc glycans by measuring PNA lectin signal on cell surface at 40 uM incubated for 48 hrs by DAPI staining based immunofluorescence method
[6] = biological target: T1, Polypeptide N-acetylgalactosaminyltransferase 2; test: Inhibition of ppGalNAcT2 in human HT-29 cells assessed as reduction in O-GalNAc glycans by measuring VVA lectin expression at 20 to 60 uM incubated for 48 hrs by Western blot analysis; assay type: cell-based
[7] = biological target: T1, Polypeptide N-acetylgalactosaminyltransferase 2; test: Inhibition of ppGalNAcT2 in human HT-29 cells assessed as reduction in O-GalNAc glycans by measuring PNA lectin expression at 20 to 60 uM incubated for 48 hrs by Western blot analysis; assay type: cell-based
[8] = test system: HT-29; test: Effect on N-glycans in human HT-29 cells assessed as change in ConA expression at 40 uM incubated for 48 hrs by Western blot analysis; assay type: ADME, cell-based; conditions: ht-29, 48 h
[9] = test system: HT-29; test: Effect on ppGalNAcT2 expression level in human HT-29 cells at 40 uM incubated for 48 hrs by Q-PCR analysis; assay type: ADME, cell-based; conditions: ht-29, 48 h
[10] = test system: HT-29; test: Effect on ppGalNAcT5 expression level in human HT-29 cells at 40 uM incubated for 48 hrs by Q-PCR analysis; assay type: ADME, cell-based; conditions: ht-29, 48 h
[11] = test system: HT-29; test: Effect on ppGalNAcT6 expression level in human HT-29 cells at 40 uM incubated for 48 hrs by Q-PCR analysis; assay type: ADME, cell-based; conditions: ht-29, 48 h
[12] = test system: HT-29; test: Effect on ppGalNAcT10 expression level in human HT-29 cells at 40 uM incubated for 48 hrs by Q-PCR analysis; assay type: ADME, cell-based; conditions: ht-29, 48 h
[13] = test system: HT-29; test: Effect on ppGalNAcT11 expression level in human HT-29 cells at 40 uM incubated for 48 hrs by Q-PCR analysis; assay type: ADME, cell-based; conditions: ht-29, 48 h
[14] = test system: HT-29; test: Effect on ppGalNAcT16 expression level in human HT-29 cells at 40 uM incubated for 48 hrs by Q-PCR analysis; assay type: ADME, cell-based; conditions: ht-29, 48 h
[15] = organism: Cricetulus griseus; test: Inhibition of ppGalNAcT2 in Chinese hamster ldlD cell lysates assessed as reduction in O-GalNAc glycosylation by measuring glycans VVA lectin expression at 0.5 to 4 uM incubated for 30 mins by Western blot analysis; assay type: subcellular; conditions: Lysate
[16] = biological target: T1, Polypeptide N-acetylgalactosaminyltransferase 2; test: Inhibition of ppGalNAcT2 in human Jurkat cells assessed as reduction in O-GalNAc glycosylation by measuring VVA lectin expression at 40 uM incubated for 48 hrs by Western blot analysis; assay type: cell-based
[17] = biological target: T1, Polypeptide N-acetylgalactosaminyltransferase 2; test: Inhibition of ppGalNAcT2 in human RKO cells assessed as reduction in O-GalNAc glycosylation by measuring VVA lectin expression at 40 uM incubated for 48 hrs by Western blot analysis; assay type: cell-based
[18] = test system: HCT-116; test: Cytotoxicity against human HCT116 cells at 40 uM incubated for 48 hrs by CCK-8 assay; assay type: cell-based; conditions: hct-116, 48 h
[19] = test system: SW480; test: Cytotoxicity against human SW480 cells at 40 uM incubated for 48 hrs by CCK-8 assay; assay type: cell-based; conditions: sw480, 48 h
[20] = test system: RKO; test: Cytotoxicity against human RKO cells at 40 uM incubated for 48 hrs by CCK-8 assay; assay type: cell-based
[21] = test system: HT-29; test: Antimigratory activity in human HT-29 cells at 40 uM incubated for 48 hrs by crystal violet staining based method; assay type: functional, cell-based
[22] = test system: SW480; test: Antimigratory activity in human SW480 cells at 40 uM incubated for 48 hrs by crystal violet staining based method; assay type: functional, cell-based
[23] = test system: HCT-116; test: Anti-invasive activity in human HCT116 cells at 40 uM incubated for 48 hrs by crystal violet staining based method; assay type: functional, cell-based
[24] = biological target: T1, Polypeptide N-acetylgalactosaminyltransferase 2; test: Inhibition of ppGalNAcT2 in human HT-29 cells assessed as reduction in PDPN O-GalNAc glycosylation by at 40 uM incubated for 48 hrs by jacalin lectin based immunoprecipitation analysis; assay type: cell-based
[25] = test system: HT-29; test: Effect on PDPN expression level in human HT-29 cells at 40 uM incubated for 48 hrs by Q-PCR analysis; assay type: ADME, cell-based; conditions: ht-29, 48 h
[26] = test system: HT-29; test: Effect on ppGalNAcT2 expression level in human HT-29 cells at 40 uM incubated for 48 hrs by Western blot analysis; assay type: ADME, cell-based; conditions: ht-29, 48 h
[27] = test system: HT-29; test: Effect on ppGalNAcT4 expression level in human HT-29 cells at 40 uM incubated for 48 hrs by Western blot analysis; assay type: ADME, cell-based; conditions: ht-29, 48 h

`O=c1oc2c(O)c(O)ccc2c2cc(O)c(O)cc12` was tested, and the Ki [1] was 6150 nM, the IC50 [2] was 330 nM and the IC50 [3] was 2070 nM. The IC50 [4] was 1250 nM, the inhibition [5] was “Active” and the inhibition [6] was “Active”. For the same molecule, the inhibition [7] was “Active”, the Activity [8] was “Non-Toxic” and the Activity [9] was “Non-Toxic”. The Activity [10] was “Non-Toxic”, the Activity [11] was “Non-Toxic” and the Activity [12] was “Non-Toxic”. For the same molecule, the Activity [13] was “Non-Toxic”, the Activity [14] was “Non-Toxic” and the inhibition [15] was “Dose-dependent effect”. The inhibition [16] was “Active”, the inhibition [17] was “Active” and the Activity [18] was “Non-Toxic”. The Activity [19] was “Non-Toxic”, the Activity [20] was “Non-Toxic” and the Activity [21] was “Active”. For the same molecule, the Activity [22] was “Active”, the Activity [23] was “Active” and the inhibition [24] was “Active”. For the same molecule, the Activity [25] was “Non-Toxic”, the Activity [26] was “Non-Toxic” and the Activity [27] was “Non-Toxic”.
